Measurements from US7015228B2, “4-amino-2-(2-pyridyl)pyrimidines as microbicidal active substances” (Ciba Specialty Chemicals Corporation, priority 2001, dated 2006).
Values after ≈ are worked out from the molar mass of the structure shown.

Tests used:
Assay type in all cases: cell-based
[1] = system: Escherichia coli NCTC 8196; test: Minimum inhibitory concentration (MIC) in microtitre plates; conditions: for Minimum inhibitory concentration (MIC) E. coli: Table 7, 48 hours at 37° C., MIC = ≦20% growth compared to control; for Minimum inhibitory concentration (MIC) E. coli NCTC 8196: Table 8, * = significant inhibition of growth, but not complete inhibition
In short: (§1)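 Compounds in DMSO, 1:2 dilution series; bacteria at 1–5×10^6 CFU/ml diluted 1:100 in CASO broth. Incubation 48 h at 37° C, growth read as OD 620 nm. MIC is the lowest concentration giving ≤20% growth relative to control; duplicates.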

[2] = system: Staphylococcus hominis DMS 20328; test: as above; conditions: Table 7; 48 hours at 37° C.; MIC = ≦20% growth compared to control
In short: as §1

[3] = system: Klebsiella pneumonia ATCC 4352; test: Minimum inhibitory concentration (MIC), further microorganisms; conditions: Table 8; * = significant inhibition of growth, but not complete inhibition
In short: (§2)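 Organisms at 1–5×10^6 CFU/ml were diluted 1:100 into CASO broth (bacteria, yeast) or Sabouraud 2% glucose broth (mould) over 1:2 DMSO dilution series of compound. Bacteria and yeast were incubated 48 h at 37 °C and mould 5 days at 28 °C. MIC is the lowest concentration giving ≤20% growth versus control by OD620, in duplicate.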

[4] = system: Trichophyton mentagrophytes ATCC 9533; test: as above; conditions: Table 8; * = significant inhibition of growth, but not complete inhibition
In short: as §2

[5] = system: S. epidermidis ATCC 12228; test: as above; conditions: Table 8; * = significant inhibition of growth, but not complete inhibition
In short: as §2

[6] = system: Micrococcus luteus ATCC 9341; test: as above; conditions: Table 8; * = significant inhibition of growth, but not complete inhibition
In short: as §2

[7] = system: Aspergillus niger ATCC 6275; test: as above; conditions: Table 8; * = significant inhibition of growth, but not complete inhibition
In short: as §2

[8] = system: Enterococcus hirae ATCC 10541; test: as above; conditions: Table 8; * = significant inhibition of growth, but not complete inhibition
In short: as §2

[9] = system: Salmonella choleraesuis ATCC 10708; test: as above; conditions: Table 8
In short: as §2

[10] = system: Candida albicans ATCC 10231; test: as above; conditions: Table 8; * = significant inhibition of growth, but not complete inhibition
In short: as §2

[11] = system: Epidermophyton floccosum DSM 10709; test: as above; conditions: Table 8; * = significant inhibition of growth, but not complete inhibition
In short: as §2

[12] = system: Staphylococcus aureus ATCC 9144; test: as above; conditions: Table 8; * = significant inhibition of growth, but not complete inhibition
In short: as §2

[13] = system: Pseudomonas aeruginosa CIP A-22; test: as above; conditions: Table 8
In short: as §2

SMILES | Minimum inhibitory concentration (MIC) E. coli [1] [mg/L] | Minimum inhibitory concentration (MIC) E. coli NCTC 8196 [1] [mg/L] | Minimum inhibitory concentration (MIC) S. hominis [2] [mg/L] | Minimum inhibitory concentration (MIC) Klebsiella pneumonia ATCC 4352 [3] [mg/L] | Minimum inhibitory concentration (MIC) Trichophyton mentagrophytes ATCC 9533 [4] [mg/L] | Minimum inhibitory concentration (MIC) S. epidermidis ATCC 12228 [5] | Minimum inhibitory concentration (MIC) Micrococcus luteus ATCC 9341 [6] | Minimum inhibitory concentration (MIC) Aspergillus niger ATCC 6275 [7] | Minimum inhibitory concentration (MIC) Enterococcus hirae ATCC 10541 [8] | Minimum inhibitory concentration (MIC) Salmonella choleraesuis ATCC 10708 [9] [mg/L] | Minimum inhibitory concentration (MIC) Candida albicans ATCC 10231 [10] | Minimum inhibitory concentration (MIC) Epidermophyton floccosum DSM 10709 [11] | Minimum inhibitory concentration (MIC) Staphylococcus aureus ATCC 9144 [12] [mg/L] | Minimum inhibitory concentration (MIC) Pseudomonas aeruginosa CIP A-22 [13] [mg/L]
CCCCCCCCCCCNc1cc(C(C)C)nc(-c2ccccn2)n1 [compound 98] | >120 | 120 (≈ 326 µM) | 3.75 (≈ 10.2 µM) | 120 (≈ 326 µM) | >60 | 1.9 mg/L (≈ 5.16 µM) | <0.5 mg/L | >60 mg/L | 1.9 mg/L (≈ 5.16 µM) | >120 | 30 mg/L (≈ 81.4 µM) | 15 mg/L (≈ 40.7 µM) | 1.9 (≈ 5.16 µM) | >120
CCCCCCCCCCCCCCCNc1cc(C)nc(-c2ccccn2)n1 [compound 93] | >120 | >120 | 7.5 (≈ 18.9 µM) | >120 | >60 | 7.5 mg/L (≈ 18.9 µM) | 1.9 mg/L (≈ 4.79 µM) | >60 mg/L | 15 mg/L (≈ 37.8 µM) | >120 | *120 μg/mL | >60 mg/L | 15 (≈ 37.8 µM) | >120
Cc1nc(-c2ccccn2)nc(NCCCCCCCCCN)c1C(C)C [compound 66] | 30 (≈ 81.2 µM) | >60 | 3.75 (≈ 10.1 µM) | >60 | >60 | 60 mg/L (≈ 162 µM) | *30 μg/mL | >60 mg/L | >60 mg/L | >60 | >60 mg/L | >60 mg/L | 60 (≈ 162 µM) | >60
CCCCCCCCCCCCNc1cc(C)nc(-c2ccccn2)n1 [compound 24] | 80 (≈ 226 µM) | >60 | 2.5 (≈ 7.05 µM) | >60 | >60 | 3.75 mg/L (≈ 10.6 µM) | <3.75 mg/L | >60 mg/L | *15 μg/mL | >60 | 30 mg/L (≈ 84.6 µM) | 60 mg/L (≈ 169 µM) | <3.75 | >60
CCCCCCCCCCCCCCCNc1cc(C(C)C)nc(-c2ccccn2)n1 [compound 99] | >120 | >60 | 15 (≈ 35.3 µM) | >60 | >60 | 3.75 mg/L (≈ 8.83 µM) | 1.0 mg/L (≈ 2.35 µM) | >60 mg/L | 3.75 mg/L (≈ 8.83 µM) | >60 | >60 mg/L | *60 μg/mL | 7.5 (≈ 17.7 µM) | >60
CCCCCCCCCCCNc1cc(C)nc(-c2ccccn2)n1 [compound 92] | >120 | >120 | 3.75 (≈ 11 µM) | 120 (≈ 352 µM) | 15 (≈ 44.1 µM) | *1.9 μg/mL | <0.5 mg/L | *60 μg/mL | 3.75 mg/L (≈ 11 µM) | >120 | 15 mg/L (≈ 44.1 µM) | 15 mg/L (≈ 44.1 µM) | 3.75 (≈ 11 µM) | >120
Cc1nc(-c2ccccn2)nc(NCCCCCCCCN)c1C(C)C [compound 65] | 120 (≈ 338 µM) | >60 | 30 (≈ 84.4 µM) | >60 | >60 | >60 mg/L | >60 mg/L | >60 mg/L | >60 mg/L | >60 | >60 mg/L | >60 mg/L | >60 | >60
